Results from patent US10874108B2, “Anti-microbial compositions” (5D HEALTH PROTECTION GROUP LTD, priority 2016, dated 2020).

What was measured:
[1] = Cumulative elution from carbopol hydrogel; format: physicochemical
Protocol: Hydrogels were loaded with EDTA compounds and investigated for elution of the silver, zinc and EDTA. Carbopol ETD 2020 was obtained from Lubrizol Advanced Materials, Inc. USA. 1.2 g carbopol power was dissolved in 42.36 g deionized water for 1 hour to fully hydrate. Then 8.4 ml of the EDTA complexes and 4.8 g glycerine were added into carbopol solution with vigorous stirring; finally, 3 g 50% triethanolamine was dropped into the suspension to obtain final products: carbopol hydrogel with EDTA complexes.
The silver, zinc and EDTA increased in saline day by day, which indicated the release of silver, zinc and EDTA can be controlled from the hydrogel.

[2] = Elution from loaded gauze; format: physicochemical
Protocol: The gauzes were weighed before soaking, after soaking and after drying for 24 hours. To assess the elution profile of the EDTA complexes from gauze, the loaded gauzes were immersed in water and saline (Table 6 and Table 7). […] After day 2, the eluting of silver, zinc and EDTA decreased more than 5 times compared to day 1.

[3] = system: S. epidermidis ATCC 35984 biofilm; assay: MBEC model (ASTM E2799), liquid formulas; format: cell-based; conditions: treated 24 hours
Protocol: (§1) The MBEC model (ASTM E2799) was used to assess the anti-biofilm efficacy of the liquid formulas. Biofilms were grown on polystyrene pegs in the MBEC model for either 24 or 48 hours before treatment. Using the liquid form of the EDTA complexes 24- and 48-hour biofilms were tested (Table 20).
(§2) 24- and 48-hour biofilms were formed using MBEC plate method and treated for 24 hours. Technical replicates n=3. Log reduction (LR) values show±standard error (SE) of LR value.

[4] = system: P. aeruginosa NCTC 10662 biofilm; assay: MBEC model (ASTM E2799), liquid formulas; format: cell-based; conditions: treated 24 hours
Protocol: as §1, §2

[5] = system: S. aureus ATCC 29213 biofilm; assay: MBEC model (ASTM E2799), liquid formulas; format: cell-based; conditions: treated 24 hours
Protocol: as §1, §2

[6] = system: S. aureus MRSA BAA-43 biofilm; assay: MBEC model (ASTM E2799), liquid formulas; format: cell-based; conditions: treated 24 hours
Protocol: as §1, §2

[7] = system: E. faecalis ATCC 29212 biofilm; assay: MBEC model (ASTM E2799), liquid formulas; format: cell-based; conditions: treated 24 hours
Protocol: as §1, §2

Molecule: O=C([O-])CN(CCN(CC(=O)[O-])CC(=O)[O-])CC(=O)[O-].[Ag+].[Ag+].[Zn+2] [EDTA compound 4, sample 2]
- Elution in saline (ppm) EDTA ([1]; day 1): 16.64 ± 1.41 ppm
- Elution in saline (ppm) Silver ([1]; day 1): 21.10 ± 1.80 ppm
- Elution in saline (ppm) Zinc ([1]; day 1): 15.30 ± 2.12 ppm
- Elution in water (ppm) EDTA ([1]; day 1): 20.80 ± 3.07 ppm
- Elution in water (ppm) Silver ([1]; day 1): 28.41 ± 3.48 ppm
- Elution in water (ppm) Zinc ([1]; day 1): 20.77 ± 3.25 ppm
- Elution in saline (ppm) EDTA ([1]; day 2): 17.31 ± 1.43 ppm
- Elution in saline (ppm) Silver ([1]; day 2): 26.06 ± 2.03 ppm
- Elution in saline (ppm) Zinc ([1]; day 2): 20.51 ± 3.94 ppm
- Elution in water (ppm) EDTA ([1]; day 2): 22.50 ± 2.86 ppm
- Elution in water (ppm) Silver ([1]; day 2): 29.03 ± 4.71 ppm
- Elution in water (ppm) Zinc ([1]; day 2): 23.57 ± 2.12 ppm
- Elution in saline (ppm) EDTA ([1]; day 3): 21.81 ± 0.42 ppm
- Elution in saline (ppm) Silver ([1]; day 3): 31.27 ± 0.96 ppm
- Elution in saline (ppm) Zinc ([1]; day 3): 23.98 ± 1.92 ppm
- Elution in water (ppm) EDTA ([1]; day 3): 24.64 ± 1.57 ppm
- Elution in water (ppm) Silver ([1]; day 3): 29.12 ± 2.73 ppm
- Elution in water (ppm) Zinc ([1]; day 3): 22.53 ± 7.30 ppm
- Elution in saline (ppm) EDTA ([1]; day 4): 22.70 ± 1.70 ppm
- Elution in saline (ppm) Silver ([1]; day 4): 32.50 ± 0.96 ppm
- Elution in saline (ppm) Zinc ([1]; day 4): 26.11 ± 1.08 ppm
- Elution in water (ppm) EDTA ([1]; day 4): 24.30 ± 1.51 ppm
- Elution in water (ppm) Silver ([1]; day 4): 29.89 ± 3.51 ppm
- Elution in water (ppm) Zinc ([1]; day 4): 22.23 ± 1.97 ppm
- Elution in saline (ppm) EDTA ([1]; day 5): 25.02 ± 0.96 ppm
- Elution in saline (ppm) Silver ([1]; day 5): 37.54 ± 0.61 ppm
- Elution in saline (ppm) Zinc ([1]; day 5): 27.28 ± 3.01 ppm
- Elution in water (ppm) EDTA ([1]; day 5): 23.03 ± 3.46 ppm
- Elution in water (ppm) Silver ([1]; day 5): 30.64 ± 5.25 ppm
- Elution in water (ppm) Zinc ([1]; day 5): 23.54 ± 1.23 ppm
- Elution in saline (ppm) EDTA ([2]; day 1): 17.31 ± 1.77 ppm
- Elution in saline (ppm) Silver ([2]; day 1): 27.32 ± 3.84 ppm
- Elution in saline (ppm) Zinc ([2]; day 1): 22.71 ± 1.75 ppm
- Elution in water (ppm) EDTA ([2]; day 1): 13.23 ± 1.28 ppm
- Elution in water (ppm) Silver ([2]; day 1): 23.32 ± 3.95 ppm
- Elution in water (ppm) Zinc ([2]; day 1): 17.08 ± 3.09 ppm
- Elution in saline (ppm) EDTA ([2]; day 2): 6.84 ± 2.67 ppm
- Elution in saline (ppm) Silver ([2]; day 2): 8.36 ± 2.37 ppm
- Elution in saline (ppm) Zinc ([2]; day 2): 7.67 ± 2.03 ppm
- Elution in water (ppm) EDTA ([2]; day 2): 8.74 ± 2.01 ppm
- Elution in water (ppm) Silver ([2]; day 2): 16.28 ± 3.75 ppm
- Elution in water (ppm) Zinc ([2]; day 2): 12.78 ± 1.55 ppm
- Elution in saline (ppm) EDTA ([2]; day 3): 1.75 ± 0.31 ppm
- Elution in saline (ppm) Silver ([2]; day 3): 2.55 ± 0.94 ppm
- Elution in saline (ppm) Zinc ([2]; day 3): 3.70 ± 0.20 ppm
- Elution in water (ppm) EDTA ([2]; day 3): 1.55 ± 0.56 ppm
- Elution in water (ppm) Silver ([2]; day 3): 3.82 ± 1.39 ppm
- Elution in water (ppm) Zinc ([2]; day 3): 4.21 ± 1.19 ppm
- Elution in saline (ppm) EDTA ([2]; day 4): 1.11 ± 0.61 ppm
- Elution in saline (ppm) Silver ([2]; day 4): 1.46 ± 0.99 ppm
- Elution in saline (ppm) Zinc ([2]; day 4): 3.48 ± 0.68 ppm
- Elution in water (ppm) EDTA ([2]; day 4): 1.13 ± 0.57 ppm
- Elution in water (ppm) Silver ([2]; day 4): 1.42 ± 0.40 ppm
- Elution in water (ppm) Zinc ([2]; day 4): 3.37 ± 0.26 ppm
- Elution in saline (ppm) EDTA ([2]; day 5): 0.54 ± 0.11 ppm
- Elution in saline (ppm) Silver ([2]; day 5): 1.57 ± 1.43 ppm
- Elution in saline (ppm) Zinc ([2]; day 5): 2.95 ± 1.46 ppm
- Elution in water (ppm) EDTA ([2]; day 5): 0.79 ± 0.19 ppm
- Elution in water (ppm) Silver ([2]; day 5): 0.59 ± 0.35 ppm
- Elution in water (ppm) Zinc ([2]; day 5): 2.49 ± 0.88 ppm

Molecule: Silver
- Kill % ([3]; 50 ppm, 24-Hour Biofilm): 100%
- LR ([3]; 50 ppm, 24-Hour Biofilm): 6.09
- Kill % ([3]; 50 ppm, 48-Hour Biofilm): 100%
- LR ([3]; 50 ppm, 48-Hour Biofilm): 6.41
- Kill % ([3]; 100 ppm, 24-Hour Biofilm): 100%
- LR ([3]; 100 ppm, 24-Hour Biofilm): 6.09
- Kill % ([3]; 100 ppm, 48-Hour Biofilm): 100%
- LR ([3]; 100 ppm, 48-Hour Biofilm): 6.41
- Kill % ([4]; 50 ppm, 24-Hour Biofilm): 100%
- LR ([4]; 50 ppm, 24-Hour Biofilm): 7.44
- Kill % ([4]; 50 ppm, 48-Hour Biofilm): 100%
- LR ([4]; 50 ppm, 48-Hour Biofilm): 8.44
- Kill % ([4]; 100 ppm, 24-Hour Biofilm): 100%
- LR ([4]; 100 ppm, 24-Hour Biofilm): 7.44
- Kill % ([4]; 100 ppm, 48-Hour Biofilm): 100%
- LR ([4]; 100 ppm, 48-Hour Biofilm): 8.44
- Kill % ([5]; 50 ppm, 24-Hour Biofilm): 100%
- LR ([5]; 50 ppm, 24-Hour Biofilm): 6.44
- Kill % ([5]; 50 ppm, 48-Hour Biofilm): 100%
- LR ([5]; 50 ppm, 48-Hour Biofilm): 6.50
- Kill % ([5]; 100 ppm, 24-Hour Biofilm): 100%
- LR ([5]; 100 ppm, 24-Hour Biofilm): 6.44
- Kill % ([5]; 100 ppm, 48-Hour Biofilm): 100%
- LR ([5]; 100 ppm, 48-Hour Biofilm): 6.50
- Kill % ([6]; 50 ppm, 24-Hour Biofilm): 100%
- LR ([6]; 50 ppm, 24-Hour Biofilm): 5.40
- Kill % ([6]; 50 ppm, 48-Hour Biofilm): 100%
- LR ([6]; 50 ppm, 48-Hour Biofilm): 6.43
- Kill % ([6]; 100 ppm, 24-Hour Biofilm): 100%
- LR ([6]; 100 ppm, 24-Hour Biofilm): 5.40
- Kill % ([6]; 100 ppm, 48-Hour Biofilm): 100%
- LR ([6]; 100 ppm, 48-Hour Biofilm): 6.43
- Kill % ([7]; 50 ppm, 24-Hour Biofilm): 100%
- LR ([7]; 50 ppm, 24-Hour Biofilm): 6.35
- Kill % ([7]; 50 ppm, 48-Hour Biofilm): 100%
- LR ([7]; 50 ppm, 48-Hour Biofilm): 6.40
- Kill % ([7]; 100 ppm, 24-Hour Biofilm): 100%
- LR ([7]; 100 ppm, 24-Hour Biofilm): 6.35
- Kill % ([7]; 100 ppm, 48-Hour Biofilm): 100%
- LR ([7]; 100 ppm, 48-Hour Biofilm): 6.40
